From ChEMBL document CHEMBL1833857, “Histone deacetylase activators: N-acetylthioureas serve as highly potent and isozyme selective activators for human histone deacetylase-8 on a fluorescent substrate” (Bioorg Med Chem Lett, 2011)
Activity calls are given as the source filed them. The rule behind the calls is not given here.

How the values were obtained:
[1] = target: T1, Histone deacetylase 8 (Homo sapiens) (UniProt Q9BY41); experiment: Activation of recombinant human HDAC8 assessed as ratio of the initial rate of reaction in the absence and presence of compound using Fluor-de-Lys as substrate at 10 uM by spectrofluorometry
T1 sequence (whole entry): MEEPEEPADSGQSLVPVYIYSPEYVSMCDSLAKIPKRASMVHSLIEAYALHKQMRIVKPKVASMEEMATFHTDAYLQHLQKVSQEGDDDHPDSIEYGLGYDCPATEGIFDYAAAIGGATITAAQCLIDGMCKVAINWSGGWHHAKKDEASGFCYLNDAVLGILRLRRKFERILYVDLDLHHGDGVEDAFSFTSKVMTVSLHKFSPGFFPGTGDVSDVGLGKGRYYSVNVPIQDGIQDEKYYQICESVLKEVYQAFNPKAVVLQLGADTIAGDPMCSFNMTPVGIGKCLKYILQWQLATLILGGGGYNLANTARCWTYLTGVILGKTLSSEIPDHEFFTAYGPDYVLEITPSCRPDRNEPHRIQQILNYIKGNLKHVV

[2] = target: Histone deacetylase 1 (Homo sapiens) (UniProt Q13547); experiment: Inhibition of HDAC1 using Fluor-de-Lys as substrate at 100 uM by spectrofluorometry
Sequence of Histone deacetylase 1 (Homo sapiens) (Q13547 whole entry): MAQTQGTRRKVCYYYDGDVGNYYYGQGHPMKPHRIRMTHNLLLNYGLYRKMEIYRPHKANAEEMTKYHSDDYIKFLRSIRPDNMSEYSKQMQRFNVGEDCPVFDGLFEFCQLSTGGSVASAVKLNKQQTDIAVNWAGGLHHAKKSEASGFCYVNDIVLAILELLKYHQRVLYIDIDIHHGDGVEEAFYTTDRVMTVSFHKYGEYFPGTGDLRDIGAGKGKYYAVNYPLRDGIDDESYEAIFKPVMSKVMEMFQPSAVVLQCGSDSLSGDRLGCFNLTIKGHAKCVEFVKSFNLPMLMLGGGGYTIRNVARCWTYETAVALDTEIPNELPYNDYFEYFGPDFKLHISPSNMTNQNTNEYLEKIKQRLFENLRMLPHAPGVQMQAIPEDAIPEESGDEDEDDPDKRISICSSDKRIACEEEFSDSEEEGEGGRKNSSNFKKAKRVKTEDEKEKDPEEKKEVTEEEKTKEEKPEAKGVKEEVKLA

[3] = target: Histone deacetylase 2 (Homo sapiens) (UniProt Q92769); experiment: Inhibition of HDAC2 using Fluor-de-Lys as substrate at 100 uM by spectrofluorometry
Sequence of Histone deacetylase 2 (Homo sapiens) (Q92769 whole entry): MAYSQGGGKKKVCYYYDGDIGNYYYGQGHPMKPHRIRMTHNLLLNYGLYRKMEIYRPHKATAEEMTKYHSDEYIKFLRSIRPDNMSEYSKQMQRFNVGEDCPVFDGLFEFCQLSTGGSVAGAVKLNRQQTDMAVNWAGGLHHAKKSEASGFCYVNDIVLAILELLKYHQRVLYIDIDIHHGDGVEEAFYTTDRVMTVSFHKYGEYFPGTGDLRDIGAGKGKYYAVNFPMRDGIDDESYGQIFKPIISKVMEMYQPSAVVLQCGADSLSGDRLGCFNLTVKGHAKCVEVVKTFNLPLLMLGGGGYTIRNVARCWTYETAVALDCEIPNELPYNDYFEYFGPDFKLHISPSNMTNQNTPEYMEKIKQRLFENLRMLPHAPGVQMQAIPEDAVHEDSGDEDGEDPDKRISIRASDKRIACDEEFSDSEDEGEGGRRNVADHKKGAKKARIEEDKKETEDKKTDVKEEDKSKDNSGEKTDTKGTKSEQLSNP

[4] = target: Histone deacetylase 3 (Homo sapiens) (UniProt O15379); experiment: Inhibition of HDAC3 using Fluor-de-Lys as substrate at 100 uM by spectrofluorometry
Sequence of Histone deacetylase 3 (Homo sapiens) (O15379 whole entry): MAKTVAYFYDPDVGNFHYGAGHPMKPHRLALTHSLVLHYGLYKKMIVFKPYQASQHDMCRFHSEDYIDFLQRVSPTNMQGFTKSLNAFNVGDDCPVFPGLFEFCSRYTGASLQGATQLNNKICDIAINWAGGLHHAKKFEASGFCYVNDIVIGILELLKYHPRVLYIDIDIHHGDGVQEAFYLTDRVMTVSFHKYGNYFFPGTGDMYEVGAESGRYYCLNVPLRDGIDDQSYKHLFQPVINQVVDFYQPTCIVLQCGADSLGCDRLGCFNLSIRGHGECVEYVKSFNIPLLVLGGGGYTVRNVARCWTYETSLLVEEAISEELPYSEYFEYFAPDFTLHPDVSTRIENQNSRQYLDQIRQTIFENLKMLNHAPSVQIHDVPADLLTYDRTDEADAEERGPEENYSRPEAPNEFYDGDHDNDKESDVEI

[5] = target: Histone deacetylase 4 (Homo sapiens) (UniProt P56524); experiment: Inhibition of HDAC4 using trifluoroacetyl-lysine containing fluorogenic substrate at 100 uM by spectrofluorometry
Sequence of Histone deacetylase 4 (Homo sapiens) (P56524 whole entry): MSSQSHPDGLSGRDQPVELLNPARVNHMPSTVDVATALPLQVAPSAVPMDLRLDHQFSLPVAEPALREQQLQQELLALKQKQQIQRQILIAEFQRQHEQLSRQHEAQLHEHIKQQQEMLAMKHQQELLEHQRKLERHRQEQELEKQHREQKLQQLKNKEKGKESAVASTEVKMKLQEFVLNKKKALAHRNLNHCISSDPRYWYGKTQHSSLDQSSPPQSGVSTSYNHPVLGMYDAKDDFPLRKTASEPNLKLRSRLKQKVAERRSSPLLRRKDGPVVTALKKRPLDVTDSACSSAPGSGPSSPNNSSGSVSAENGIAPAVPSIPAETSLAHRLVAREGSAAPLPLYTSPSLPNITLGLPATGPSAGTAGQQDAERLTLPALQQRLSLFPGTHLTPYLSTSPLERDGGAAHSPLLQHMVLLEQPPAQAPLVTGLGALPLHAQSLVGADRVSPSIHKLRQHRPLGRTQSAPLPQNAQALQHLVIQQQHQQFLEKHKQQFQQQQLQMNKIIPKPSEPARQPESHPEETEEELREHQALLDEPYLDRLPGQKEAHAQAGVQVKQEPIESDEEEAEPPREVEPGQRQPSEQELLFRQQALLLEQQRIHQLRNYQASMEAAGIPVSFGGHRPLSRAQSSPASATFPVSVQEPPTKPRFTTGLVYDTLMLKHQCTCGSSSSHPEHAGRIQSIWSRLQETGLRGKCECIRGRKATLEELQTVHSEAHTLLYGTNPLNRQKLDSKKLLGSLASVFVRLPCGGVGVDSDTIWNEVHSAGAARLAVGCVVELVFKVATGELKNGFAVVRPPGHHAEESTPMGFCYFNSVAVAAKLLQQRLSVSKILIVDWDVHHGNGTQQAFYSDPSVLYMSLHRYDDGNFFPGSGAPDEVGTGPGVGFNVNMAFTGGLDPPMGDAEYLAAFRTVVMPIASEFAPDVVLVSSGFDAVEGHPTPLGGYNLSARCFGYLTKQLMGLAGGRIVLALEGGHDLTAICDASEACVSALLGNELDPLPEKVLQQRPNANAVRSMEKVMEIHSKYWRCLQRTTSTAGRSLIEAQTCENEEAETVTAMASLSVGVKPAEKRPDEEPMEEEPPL

[6] = target: T2, Protein deacetylase HDAC6 (Homo sapiens) (UniProt Q9UBN7); experiment: Inhibition of HDAC6 using Fluor-de-Lys as substrate at 100 uM by spectrofluorometry
T2 sequence (whole entry): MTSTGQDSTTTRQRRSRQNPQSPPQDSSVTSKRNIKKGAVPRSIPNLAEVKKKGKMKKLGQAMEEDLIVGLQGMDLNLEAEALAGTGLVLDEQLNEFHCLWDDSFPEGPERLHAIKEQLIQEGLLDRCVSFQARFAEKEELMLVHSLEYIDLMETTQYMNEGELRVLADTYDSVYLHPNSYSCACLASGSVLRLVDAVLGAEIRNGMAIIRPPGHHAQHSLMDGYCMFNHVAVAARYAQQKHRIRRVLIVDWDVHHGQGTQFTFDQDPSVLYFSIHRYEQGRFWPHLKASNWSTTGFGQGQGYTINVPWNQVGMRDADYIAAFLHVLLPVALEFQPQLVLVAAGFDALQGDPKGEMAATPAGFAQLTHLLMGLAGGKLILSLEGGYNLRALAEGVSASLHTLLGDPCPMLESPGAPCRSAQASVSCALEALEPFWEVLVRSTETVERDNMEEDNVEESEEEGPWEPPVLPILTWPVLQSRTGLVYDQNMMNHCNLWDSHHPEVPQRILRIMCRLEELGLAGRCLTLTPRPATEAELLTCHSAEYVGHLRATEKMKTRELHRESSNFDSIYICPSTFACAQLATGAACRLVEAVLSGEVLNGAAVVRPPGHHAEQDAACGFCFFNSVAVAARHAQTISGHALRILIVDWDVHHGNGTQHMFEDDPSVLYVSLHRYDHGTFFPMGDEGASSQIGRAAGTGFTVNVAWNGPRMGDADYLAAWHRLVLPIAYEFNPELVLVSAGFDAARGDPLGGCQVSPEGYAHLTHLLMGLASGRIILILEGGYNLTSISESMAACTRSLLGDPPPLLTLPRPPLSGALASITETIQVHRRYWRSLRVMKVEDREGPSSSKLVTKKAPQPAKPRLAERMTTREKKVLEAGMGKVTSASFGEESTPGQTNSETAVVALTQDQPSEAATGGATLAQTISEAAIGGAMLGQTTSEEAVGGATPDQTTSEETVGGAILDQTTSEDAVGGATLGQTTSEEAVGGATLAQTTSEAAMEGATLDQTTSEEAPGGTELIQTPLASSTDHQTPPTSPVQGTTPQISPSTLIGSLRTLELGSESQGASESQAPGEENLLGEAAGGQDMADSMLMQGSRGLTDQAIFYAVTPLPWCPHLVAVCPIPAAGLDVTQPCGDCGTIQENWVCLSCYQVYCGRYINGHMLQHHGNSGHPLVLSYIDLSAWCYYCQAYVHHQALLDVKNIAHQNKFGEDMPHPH

[7] = target: T3, Polyamine deacetylase HDAC10 (Homo sapiens) (UniProt Q969S8); experiment: Inhibition of HDAC10 using Fluor-de-Lys as substrate at 100 uM by spectrofluorometry
T3 sequence (whole entry): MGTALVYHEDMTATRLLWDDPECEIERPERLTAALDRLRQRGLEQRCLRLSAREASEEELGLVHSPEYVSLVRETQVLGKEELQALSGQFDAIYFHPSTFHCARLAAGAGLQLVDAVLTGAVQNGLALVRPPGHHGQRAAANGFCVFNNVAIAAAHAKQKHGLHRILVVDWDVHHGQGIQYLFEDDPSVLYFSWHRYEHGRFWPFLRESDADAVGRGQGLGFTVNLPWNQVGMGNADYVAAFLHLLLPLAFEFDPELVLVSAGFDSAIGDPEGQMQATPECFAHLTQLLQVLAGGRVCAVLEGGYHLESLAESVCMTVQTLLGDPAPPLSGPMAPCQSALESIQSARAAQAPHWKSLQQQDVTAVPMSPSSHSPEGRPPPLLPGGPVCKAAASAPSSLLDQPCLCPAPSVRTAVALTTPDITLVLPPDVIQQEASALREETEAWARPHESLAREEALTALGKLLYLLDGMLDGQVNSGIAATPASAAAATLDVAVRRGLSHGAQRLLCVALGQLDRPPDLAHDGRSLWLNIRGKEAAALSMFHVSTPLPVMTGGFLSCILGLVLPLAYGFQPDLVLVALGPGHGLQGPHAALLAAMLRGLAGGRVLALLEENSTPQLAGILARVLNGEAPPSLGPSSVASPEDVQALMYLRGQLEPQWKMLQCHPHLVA

[8] = target: T4, Histone deacetylase 11 (Homo sapiens) (UniProt Q96DB2); experiment: Inhibition of HDAC11 using Fluor-de-Lys as substrate at 100 uM by spectrofluorometry
T4 sequence (whole entry): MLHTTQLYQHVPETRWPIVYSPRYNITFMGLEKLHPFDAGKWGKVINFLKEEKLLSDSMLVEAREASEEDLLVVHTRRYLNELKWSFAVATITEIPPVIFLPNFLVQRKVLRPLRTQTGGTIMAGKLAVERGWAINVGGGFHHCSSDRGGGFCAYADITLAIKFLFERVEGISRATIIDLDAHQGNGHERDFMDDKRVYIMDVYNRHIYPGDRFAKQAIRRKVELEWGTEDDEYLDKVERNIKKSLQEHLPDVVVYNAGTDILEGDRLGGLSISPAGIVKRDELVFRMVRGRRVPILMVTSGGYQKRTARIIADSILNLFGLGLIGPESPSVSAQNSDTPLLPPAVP

[9] = target: Histone deacetylase 1 (Homo sapiens) (UniProt Q13547); experiment: Activation of HDAC1 using Fluor-de-Lys as substrate at 100 uM by spectrofluorometry
[10] = target: Histone deacetylase 4 (Homo sapiens) (UniProt P56524); experiment: Activation of HDAC4 using trifluoroacetyl-lysine containing fluorogenic substrate at 100 uM by spectrofluorometry
[11] = target: Histone deacetylase 1 (Homo sapiens) (UniProt Q13547); experiment: Activation of HDAC1 using Fluor-de-Lys as substrate at 10 uM by spectrofluorometry
[12] = target: Histone deacetylase 4 (Homo sapiens) (UniProt P56524); experiment: Activation of HDAC4 using trifluoroacetyl-lysine containing fluorogenic substrate at 10 uM by spectrofluorometry
[13] = target: Histone deacetylase 3 (Homo sapiens) (UniProt O15379); experiment: Activation of HDAC3 using Fluor-de-Lys as substrate at 100 uM by spectrofluorometry
[14] = target: T2, Protein deacetylase HDAC6 (Homo sapiens); experiment: Activation of HDAC6 using Fluor-de-Lys as substrate at 100 uM by spectrofluorometry
[15] = target: Histone deacetylase 3 (Homo sapiens) (UniProt O15379); experiment: Activation of HDAC3 using Fluor-de-Lys as substrate at 10 uM by spectrofluorometry
[16] = target: T2, Protein deacetylase HDAC6 (Homo sapiens); experiment: Activation of HDAC6 using Fluor-de-Lys as substrate at 10 uM by spectrofluorometry
[17] = target: Histone deacetylase 2 (Homo sapiens) (UniProt Q92769); experiment: Activation of HDAC2 using Fluor-de-Lys as substrate at 100 uM by spectrofluorometry
[18] = target: T3, Polyamine deacetylase HDAC10 (Homo sapiens); experiment: Activation of HDAC10 using Fluor-de-Lys as substrate at 100 uM by spectrofluorometry
[19] = target: Histone deacetylase 2 (Homo sapiens) (UniProt Q92769); experiment: Activation of HDAC2 using Fluor-de-Lys as substrate at 10 uM by spectrofluorometry
[20] = target: T3, Polyamine deacetylase HDAC10 (Homo sapiens); experiment: Activation of HDAC10 using Fluor-de-Lys as substrate at 10 uM by spectrofluorometry

Row | Compound | fold change (FC) [1] | inhibition [2] | inhibition [3] | inhibition [4] | inhibition [5] | inhibition [6] | inhibition [7] | inhibition [8] | Activity [9] | Activity [10] | Activity [11] | Activity [12] | Activity [13] | Activity [14] | Activity [15] | Activity [16] | Activity [17] | Activity [18] | Activity [19] | Activity [20]
1 | COc1cc(NC(=S)NC(=O)c2ccccc2)cc(OC)c1 | 8.4 | inactive | 6% | 5% | inactive | 5% | 10% | 10% | inactive | inactive | inactive | inactive | – | – | – | – | – | – | – | –
2 | O=C(NC(=S)NCc1ccc(-c2ccccc2)cc1)c1ccccc1 | 1.1 | inactive | 10% | inactive | inactive | inactive | 5% | 10% | inactive | inactive | inactive | inactive | inactive | inactive | inactive | inactive | – | – | – | –
3 | O=C(NC(=S)NCc1ccc(F)cc1)c1ccccc1 | 3 | 5% | inactive | inactive | inactive | inactive | inactive | 6% | – | inactive | – | inactive | inactive | inactive | inactive | inactive | inactive | inactive | inactive | inactive
4 | O=C(NC(=S)NCc1ccccc1)c1ccccc1F | 1 | inactive | inactive | inactive | inactive | inactive | 5% | 14% | inactive | inactive | inactive | inactive | inactive | inactive | inactive | inactive | inactive | – | inactive | –
5 | C[C@@H](NC(=S)NC(=O)c1ccccc1)c1ccccc1 | 1.5 | – | 6% | 6% | inactive | 45% | 5% | 8% | 4% | inactive | inactive | inactive | – | – | – | – | – | – | – | –
6 | O=C(NC(=S)NCc1cccs1)c1ccccc1 | 3 | inactive | 9% | 5% | inactive | 10% | 47% | 12% | inactive | inactive | inactive | inactive | – | – | – | – | – | – | – | –
7 | O=C(NC(=S)NCc1cc(C(F)(F)F)cc(C(F)(F)F)c1)c1ccccc1 | 1.1 | inactive | inactive | inactive | inactive | 10% | 10% | 10% | inactive | inactive | inactive | inactive | inactive | – | inactive | – | inactive | – | inactive | –
8 | C[C@H](NC(=S)NC(=O)c1ccccc1)c1ccccc1 | 4.5 | inactive | 5% | inactive | inactive | inactive | 10% | 10% | inactive | inactive | inactive | inactive | inactive | inactive | inactive | inactive | – | – | – | –
